Measurements as given in paper PMC9856672, “SGC-CAMKK2-1: A Chemical Probe for CAMKK2” (Cells, 2023).

Assays:
[1] = molecular target: T1, HASPIN (Homo sapiens, UniProt Q8TF76); test: KINOMEscan binding assay at 1 μM, HASPIN; conditions: Compound Concentration 1000 nM; read-out: Percent Control
T1 construct: purchased Eurofins DiscoverX KINOMEscan
Excerpt: (§1) Supplement cells-12-00287-s001.zip/File S2. KinomeScan data for the CAMKK2 probe and negative control.xlsx, sheet "SGC-CAMKK2-1N" | column: Percent Control

[2] = molecular target: T2, TLK1 (Homo sapiens, UniProt Q9UKI8); test: KINOMEscan at 1 μM, TLK1; assay type: binding; conditions: 1000 nM, read-out: Percent Control
T2 construct: purchased Eurofins DiscoverX KINOMEscan
Excerpt: as §1

[3] = molecular target: T3, MEK5 (Homo sapiens, UniProt Q13163); test: KINOMEscan at 1 μM, MEK5; assay type: binding; conditions: 1000 nM, read-out: Percent Control
T3 construct: purchased Eurofins DiscoverX KINOMEscan
T3 sequence (Q13163 whole entry): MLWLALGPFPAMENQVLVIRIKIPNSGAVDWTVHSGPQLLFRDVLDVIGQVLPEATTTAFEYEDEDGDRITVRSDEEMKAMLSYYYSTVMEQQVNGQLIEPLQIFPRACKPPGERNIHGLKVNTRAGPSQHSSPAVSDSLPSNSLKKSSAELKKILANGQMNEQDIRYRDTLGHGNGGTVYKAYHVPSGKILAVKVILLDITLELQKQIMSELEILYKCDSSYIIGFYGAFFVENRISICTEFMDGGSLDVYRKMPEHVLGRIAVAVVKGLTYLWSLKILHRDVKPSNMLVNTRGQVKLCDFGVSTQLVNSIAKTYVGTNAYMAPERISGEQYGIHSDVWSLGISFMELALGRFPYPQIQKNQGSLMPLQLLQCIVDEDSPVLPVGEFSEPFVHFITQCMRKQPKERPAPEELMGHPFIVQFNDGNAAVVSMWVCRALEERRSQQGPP
Excerpt: as §1

[4] = molecular target: T4, ERK1 (Homo sapiens, UniProt P27361); test: KINOMEscan at 1 μM, ERK1; assay type: binding; conditions: 1000 nM, read-out: Percent Control
T4 construct: purchased Eurofins DiscoverX KINOMEscan
Excerpt: as §1

[5] = molecular target: T5, PAK4 (Homo sapiens, UniProt O96013); test: KINOMEscan at 1 μM, PAK4; assay type: binding; conditions: 1000 nM, read-out: Percent Control
T5 construct: purchased Eurofins DiscoverX KINOMEscan
Excerpt: as §1

[6] = molecular target: T6, AMPK-alpha2 (Homo sapiens, UniProt P54646); test: KINOMEscan at 1 μM, AMPK-alpha2; assay type: binding; conditions: 1000 nM, read-out: Percent Control
T6 construct: purchased Eurofins DiscoverX KINOMEscan
Excerpt: as §1

[7] = molecular target: T7, MARK4 (Homo sapiens, UniProt Q96L34); test: KINOMEscan binding assay at 1 μM, MARK4; conditions: Compound Concentration 1000 nM; read-out: Percent Control
T7 construct: purchased Eurofins DiscoverX KINOMEscan
Excerpt: as §1

[8] = molecular target: T8, NEK7 (Homo sapiens, UniProt Q8TDX7); test: KINOMEscan at 1 μM, NEK7; assay type: binding; conditions: 1000 nM, read-out: Percent Control
T8 construct: purchased Eurofins DiscoverX KINOMEscan
T8 sequence (Q8TDX7 whole entry): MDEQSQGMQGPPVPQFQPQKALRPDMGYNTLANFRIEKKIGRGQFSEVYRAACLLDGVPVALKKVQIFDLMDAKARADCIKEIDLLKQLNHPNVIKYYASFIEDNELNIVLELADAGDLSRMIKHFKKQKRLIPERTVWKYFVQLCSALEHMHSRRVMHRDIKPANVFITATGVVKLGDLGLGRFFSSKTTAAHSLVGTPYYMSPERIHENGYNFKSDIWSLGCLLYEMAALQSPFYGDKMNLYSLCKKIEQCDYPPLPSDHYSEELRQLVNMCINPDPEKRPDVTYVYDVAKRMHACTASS
Excerpt: as §1

[9] = molecular target: T9, CAMK2B (Homo sapiens, UniProt Q13554); test: KINOMEscan at 1 μM, CAMK2B; assay type: binding; conditions: 1000 nM, read-out: Percent Control
T9 construct: purchased Eurofins DiscoverX KINOMEscan
Excerpt: as §1

[10] = molecular target: T10, ROCK2 (Homo sapiens, UniProt O75116); test: KINOMEscan at 1 μM, ROCK2; assay type: binding; conditions: 1000 nM, read-out: Percent Control
T10 construct: purchased Eurofins DiscoverX KINOMEscan
Excerpt: as §1

[11] = molecular target: T11, PIK3CA(Q546K) (Homo sapiens, UniProt P42336, Q546K); test: KINOMEscan at 1 μM, PIK3CA(Q546K); assay type: binding; conditions: 1000 nM, read-out: Percent Control
T11 construct: purchased Eurofins DiscoverX KINOMEscan
T11 sequence (P42336 whole entry Q546K): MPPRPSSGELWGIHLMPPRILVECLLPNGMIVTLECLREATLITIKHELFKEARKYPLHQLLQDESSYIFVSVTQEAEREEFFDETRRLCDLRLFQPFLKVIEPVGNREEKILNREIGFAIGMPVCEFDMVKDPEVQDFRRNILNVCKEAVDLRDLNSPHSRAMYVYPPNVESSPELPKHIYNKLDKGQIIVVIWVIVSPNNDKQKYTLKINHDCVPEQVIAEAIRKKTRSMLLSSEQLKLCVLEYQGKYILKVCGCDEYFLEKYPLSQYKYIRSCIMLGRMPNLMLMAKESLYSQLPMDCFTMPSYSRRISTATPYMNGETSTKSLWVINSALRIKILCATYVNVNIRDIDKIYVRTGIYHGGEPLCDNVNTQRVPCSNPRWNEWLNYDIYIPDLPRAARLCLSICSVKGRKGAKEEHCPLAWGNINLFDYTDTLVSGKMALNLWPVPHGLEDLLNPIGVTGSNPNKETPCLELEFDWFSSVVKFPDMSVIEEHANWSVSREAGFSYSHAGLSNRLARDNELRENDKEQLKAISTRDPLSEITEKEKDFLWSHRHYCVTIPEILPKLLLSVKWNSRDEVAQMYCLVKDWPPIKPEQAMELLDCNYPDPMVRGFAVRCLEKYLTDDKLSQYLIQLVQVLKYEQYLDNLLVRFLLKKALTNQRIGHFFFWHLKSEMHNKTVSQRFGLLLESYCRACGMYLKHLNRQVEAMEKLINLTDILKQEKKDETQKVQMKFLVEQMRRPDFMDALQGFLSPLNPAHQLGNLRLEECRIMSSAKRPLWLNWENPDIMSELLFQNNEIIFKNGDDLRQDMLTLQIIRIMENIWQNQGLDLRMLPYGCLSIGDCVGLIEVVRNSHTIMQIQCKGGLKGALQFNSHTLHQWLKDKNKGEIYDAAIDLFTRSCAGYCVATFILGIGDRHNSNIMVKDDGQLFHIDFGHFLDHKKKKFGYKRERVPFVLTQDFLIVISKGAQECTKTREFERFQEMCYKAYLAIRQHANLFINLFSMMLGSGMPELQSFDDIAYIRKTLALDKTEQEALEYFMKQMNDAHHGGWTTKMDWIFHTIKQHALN
Excerpt: as §1

[12] = molecular target: T12, SIK2 (Homo sapiens, UniProt Q9H0K1); test: KINOMEscan 1 μM, SIK2; assay type: binding; conditions: 1000 nM; Entrez SIK2; read-out: Percent Control
T12 construct: purchased Eurofins DiscoverX KINOMEscan
Excerpt: (§2) Supplement cells-12-00287-s001.zip/File S2. KinomeScan data for the CAMKK2 probe and negative control.xlsx, sheet "SGC-CAMKK2-1" | column: Percent Control

[13] = molecular target: T13, SRPK2 (Homo sapiens, UniProt P78362); test: DiscoverX KINOMEscan binding assay at 1 μM, SRPK2; conditions: Compound Concentration 1000 nM, read-out: Percent Control
T13 construct: purchased Eurofins DiscoverX KINOMEscan
Excerpt: as §2

[14] = molecular target: T14, MAP4K2 (Homo sapiens, UniProt Q12851); test: KINOMEscan 1 μM, MAP4K2; assay type: binding; conditions: 1000 nM; Entrez MAP4K2; read-out: Percent Control
T14 construct: purchased Eurofins DiscoverX KINOMEscan
T14 sequence (Q12851 whole entry): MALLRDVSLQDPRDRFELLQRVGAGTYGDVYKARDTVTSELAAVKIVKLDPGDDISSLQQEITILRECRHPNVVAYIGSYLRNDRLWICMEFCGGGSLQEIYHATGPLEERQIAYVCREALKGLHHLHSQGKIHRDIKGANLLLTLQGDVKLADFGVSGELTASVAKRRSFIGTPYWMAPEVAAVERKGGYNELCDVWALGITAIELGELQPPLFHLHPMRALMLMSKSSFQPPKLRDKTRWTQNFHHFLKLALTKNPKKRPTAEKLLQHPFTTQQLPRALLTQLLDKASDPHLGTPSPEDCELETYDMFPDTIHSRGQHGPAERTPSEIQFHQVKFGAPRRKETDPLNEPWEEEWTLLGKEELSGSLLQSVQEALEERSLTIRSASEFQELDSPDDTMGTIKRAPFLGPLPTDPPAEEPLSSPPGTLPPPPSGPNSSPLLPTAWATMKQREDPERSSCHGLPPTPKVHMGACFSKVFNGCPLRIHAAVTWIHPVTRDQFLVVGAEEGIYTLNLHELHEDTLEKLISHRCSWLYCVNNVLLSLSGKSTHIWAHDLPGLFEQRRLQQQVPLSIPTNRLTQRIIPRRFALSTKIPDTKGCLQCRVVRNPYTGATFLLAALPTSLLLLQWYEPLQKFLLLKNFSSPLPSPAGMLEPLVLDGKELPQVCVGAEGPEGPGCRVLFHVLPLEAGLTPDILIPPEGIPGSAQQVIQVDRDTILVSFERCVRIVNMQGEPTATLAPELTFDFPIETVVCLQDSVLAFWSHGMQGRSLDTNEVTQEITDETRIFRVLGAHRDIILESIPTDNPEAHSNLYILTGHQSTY
Excerpt: as §2

[15] = molecular target: T15, PRKD1 (Homo sapiens, UniProt Q15139); test: DiscoverX KINOMEscan binding assay at 1 μM, PRKD1; conditions: Compound Concentration 1000 nM, read-out: Percent Control
T15 construct: purchased Eurofins DiscoverX KINOMEscan
Excerpt: as §2

[16] = molecular target: T16, YSK4 (Homo sapiens, UniProt Q56UN5); test: KINOMEscan 1 μM, YSK4; assay type: binding; conditions: 1000 nM; Entrez MAP3K19; read-out: Percent Control
T16 construct: purchased Eurofins DiscoverX KINOMEscan
T16 sequence (Q56UN5 whole entry): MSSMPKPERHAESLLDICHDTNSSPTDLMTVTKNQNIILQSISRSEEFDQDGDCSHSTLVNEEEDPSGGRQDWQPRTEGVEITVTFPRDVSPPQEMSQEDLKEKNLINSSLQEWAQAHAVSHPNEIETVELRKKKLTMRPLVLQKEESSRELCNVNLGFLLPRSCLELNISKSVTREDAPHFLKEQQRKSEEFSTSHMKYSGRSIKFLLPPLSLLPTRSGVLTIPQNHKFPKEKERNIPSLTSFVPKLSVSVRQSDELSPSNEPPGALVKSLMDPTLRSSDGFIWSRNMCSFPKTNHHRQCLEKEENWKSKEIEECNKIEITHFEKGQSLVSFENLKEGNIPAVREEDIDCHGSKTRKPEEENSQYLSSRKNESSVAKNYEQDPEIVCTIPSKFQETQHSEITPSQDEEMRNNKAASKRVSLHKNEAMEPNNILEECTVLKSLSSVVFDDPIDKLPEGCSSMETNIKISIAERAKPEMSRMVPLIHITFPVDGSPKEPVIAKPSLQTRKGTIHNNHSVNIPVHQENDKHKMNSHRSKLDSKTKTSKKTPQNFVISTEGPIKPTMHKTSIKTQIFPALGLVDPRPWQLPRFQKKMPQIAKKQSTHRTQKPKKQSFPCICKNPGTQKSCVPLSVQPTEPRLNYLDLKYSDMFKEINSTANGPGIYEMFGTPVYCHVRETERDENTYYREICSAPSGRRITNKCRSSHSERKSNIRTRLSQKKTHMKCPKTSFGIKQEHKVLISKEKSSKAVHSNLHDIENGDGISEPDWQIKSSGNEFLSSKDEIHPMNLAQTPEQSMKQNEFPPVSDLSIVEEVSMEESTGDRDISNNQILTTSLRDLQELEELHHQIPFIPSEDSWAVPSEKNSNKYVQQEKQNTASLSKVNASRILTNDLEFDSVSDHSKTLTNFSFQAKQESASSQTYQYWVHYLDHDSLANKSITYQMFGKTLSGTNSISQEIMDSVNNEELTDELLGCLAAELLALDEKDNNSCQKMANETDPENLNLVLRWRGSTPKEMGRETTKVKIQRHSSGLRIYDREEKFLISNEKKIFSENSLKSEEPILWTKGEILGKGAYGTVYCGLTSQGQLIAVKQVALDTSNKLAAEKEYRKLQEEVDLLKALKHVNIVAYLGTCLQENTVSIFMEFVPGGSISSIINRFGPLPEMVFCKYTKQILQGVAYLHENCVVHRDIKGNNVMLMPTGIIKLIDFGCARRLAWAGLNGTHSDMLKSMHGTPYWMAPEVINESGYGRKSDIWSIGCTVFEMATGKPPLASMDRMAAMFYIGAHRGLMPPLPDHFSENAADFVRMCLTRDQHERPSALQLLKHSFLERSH
Excerpt: as §2

[17] = molecular target: T17, SgK110 (Homo sapiens, UniProt P0C264); test: KINOMEscan 1 μM, SgK110; assay type: binding; conditions: 1000 nM; Entrez SgK110; read-out: Percent Control
T17 construct: purchased Eurofins DiscoverX KINOMEscan
Excerpt: as §2

[18] = molecular target: T18, TEC (Homo sapiens, UniProt P42680); test: KINOMEscan 1 μM, TEC; assay type: binding; conditions: 1000 nM; Entrez TEC; read-out: Percent Control
T18 construct: purchased Eurofins DiscoverX KINOMEscan
Excerpt: as §2

[19] = molecular target: T19, SLK (Homo sapiens, UniProt Q9H2G2); test: KINOMEscan 1 μM, SLK; assay type: binding; conditions: 1000 nM; Entrez SLK; read-out: Percent Control
T19 construct: purchased Eurofins DiscoverX KINOMEscan
Excerpt: as §2

[20] = molecular target: T20, HCK (Homo sapiens, UniProt P08631); test: KINOMEscan 1 μM, HCK; assay type: binding; conditions: 1000 nM; Entrez HCK; read-out: Percent Control
T20 construct: purchased Eurofins DiscoverX KINOMEscan
Excerpt: as §2

[21] = molecular target: T21, CSNK2A2 (Homo sapiens, UniProt P19784); test: KINOMEscan 1 μM, CSNK2A2; assay type: binding; conditions: 1000 nM; Entrez CSNK2A2; read-out: Percent Control
T21 construct: purchased Eurofins DiscoverX KINOMEscan
Excerpt: as §2

[22] = molecular target: T22, DCAMKL2 (Homo sapiens, UniProt Q8N568); test: KINOMEscan 1 μM, DCAMKL2; assay type: binding; conditions: 1000 nM; Entrez DCLK2; read-out: Percent Control
T22 construct: purchased Eurofins DiscoverX KINOMEscan
Excerpt: as §2

[23] = molecular target: T23, HPK1 (Homo sapiens, UniProt Q92918); test: KINOMEscan 1 μM, HPK1; assay type: binding; conditions: 1000 nM; Entrez MAP4K1; read-out: Percent Control
T23 construct: purchased Eurofins DiscoverX KINOMEscan
Excerpt: as §2

[24] = molecular target: T24, CAMK1 (Homo sapiens, UniProt Q14012); test: KINOMEscan 1 μM, CAMK1; assay type: binding; conditions: 1000 nM; Entrez CAMK1; read-out: Percent Control
T24 construct: purchased Eurofins DiscoverX KINOMEscan
Excerpt: as §2

[25] = molecular target: T25, SIK (Homo sapiens, UniProt P57059); test: DiscoverX KINOMEscan binding assay at 1 μM, SIK; conditions: SIK (SIK1); Compound Concentration 1000 nM; read-out: Percent Control
T25 construct: purchased Eurofins DiscoverX KINOMEscan
Excerpt: as §2

[26] = tested on: FLT3(ITD); test: KINOMEscan 1 μM, FLT3(ITD); assay type: binding, human; conditions: 1000 nM; Entrez FLT3
Excerpt: as §2

[27] = molecular target: T26, RIOK3 (Homo sapiens, UniProt O14730); test: KINOMEscan 1 μM, RIOK3; assay type: binding; conditions: 1000 nM; Entrez RIOK3; read-out: Percent Control
T26 construct: purchased Eurofins DiscoverX KINOMEscan
Excerpt: as §2

[28] = molecular target: T27, AURKC (Homo sapiens, UniProt Q9UQB9); test: KINOMEscan 1 μM, AURKC; assay type: binding; conditions: 1000 nM; Entrez AURKC; read-out: Percent Control
T27 construct: purchased Eurofins DiscoverX KINOMEscan
Excerpt: as §2

[29] = molecular target: T28, RSK3(Kin.Dom.2-C-terminal) (Homo sapiens, UniProt Q15349); test: DiscoverX KINOMEscan binding assay at 1 μM, RSK3(Kin.Dom.2-C-terminal); conditions: RSK3(Kin.Dom.2-C-terminal) (RPS6KA2); Compound Concentration 1000 nM; read-out: Percent Control
T28 construct: RSK3(Kin.Dom.2-C-terminal); purchased Eurofins DiscoverX KINOMEscan
T28 sequence (Q15349 389-733 limits assumed): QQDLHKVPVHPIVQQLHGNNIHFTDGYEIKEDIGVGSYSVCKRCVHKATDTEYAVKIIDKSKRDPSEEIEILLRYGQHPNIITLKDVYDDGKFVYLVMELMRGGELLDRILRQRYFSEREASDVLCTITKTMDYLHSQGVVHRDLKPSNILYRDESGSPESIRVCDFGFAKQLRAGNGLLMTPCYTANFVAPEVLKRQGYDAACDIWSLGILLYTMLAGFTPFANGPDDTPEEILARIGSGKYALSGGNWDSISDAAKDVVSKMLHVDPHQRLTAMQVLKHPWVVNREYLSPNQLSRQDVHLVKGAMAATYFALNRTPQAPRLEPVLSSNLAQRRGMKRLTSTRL
Excerpt: as §2

[30] = molecular target: T29, MARK1 (Homo sapiens, UniProt Q9P0L2); test: KINOMEscan 1 μM, MARK1; assay type: binding; conditions: 1000 nM; Entrez MARK1; read-out: Percent Control
T29 construct: purchased Eurofins DiscoverX KINOMEscan
Excerpt: as §2

[31] = molecular target: T30, ABL1-nonphosphorylated (Homo sapiens, UniProt P00519); test: KINOMEscan 1 μM, ABL1-nonphosphorylated; assay type: binding; conditions: 1000 nM; Entrez ABL1; read-out: Percent Control
T30 construct: purchased Eurofins DiscoverX KINOMEscan
Excerpt: as §2

[32] = molecular target: T31, PIP5K1A (Homo sapiens, UniProt Q99755); test: DiscoverX KINOMEscan binding assay at 1 μM, PIP5K1A; conditions: Compound Concentration 1000 nM, read-out: Percent Control
T31 construct: purchased Eurofins DiscoverX KINOMEscan
T31 sequence (Q99755 whole entry): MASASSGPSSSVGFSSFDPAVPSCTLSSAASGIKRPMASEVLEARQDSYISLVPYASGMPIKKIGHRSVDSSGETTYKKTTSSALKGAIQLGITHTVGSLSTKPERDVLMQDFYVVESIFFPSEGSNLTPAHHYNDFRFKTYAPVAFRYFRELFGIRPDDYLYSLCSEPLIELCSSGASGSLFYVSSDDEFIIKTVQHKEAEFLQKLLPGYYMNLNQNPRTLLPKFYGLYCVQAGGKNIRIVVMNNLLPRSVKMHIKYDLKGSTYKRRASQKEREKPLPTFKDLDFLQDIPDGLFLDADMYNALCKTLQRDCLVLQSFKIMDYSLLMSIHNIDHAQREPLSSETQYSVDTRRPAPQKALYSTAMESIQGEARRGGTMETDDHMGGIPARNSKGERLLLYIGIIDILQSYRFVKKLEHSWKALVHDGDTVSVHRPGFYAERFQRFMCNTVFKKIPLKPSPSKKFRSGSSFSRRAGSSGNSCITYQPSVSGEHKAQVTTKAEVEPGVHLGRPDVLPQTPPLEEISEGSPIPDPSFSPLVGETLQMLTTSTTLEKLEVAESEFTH
Excerpt: as §2

Q: With `O=C(O)c1ccc(-c2coc3ncc(-c4ccccc4)cc23)cc1Cl` [SGC-CAMKK2-1N (UNC-YL-83)] as the molecule, how does the remaining binding at 1 µM [1] read?
A: Its remaining binding at 1 µM is 100%.

Q: What about the remaining binding at 1 µM [2] of the same molecule?
A: The remaining binding at 1 µM was 92%.

Q: And the remaining binding at 1 µM [3]?
A: Its remaining binding at 1 µM is 67%.

Q: What about the remaining binding at 1 µM [4] of the same molecule?
A: The remaining binding at 1 µM was 95%.

Q: And the remaining binding at 1 µM [5]?
A: Its remaining binding at 1 µM is 82%.

Q: And the remaining binding at 1 µM [6]?
A: The remaining binding at 1 µM was 100%.

Q: And the remaining binding at 1 µM [7]?
A: Its remaining binding at 1 µM is 100%.

Q: What about the remaining binding at 1 µM [8] of the same molecule?
A: Its remaining binding at 1 µM is 78%.

Q: What about the remaining binding at 1 µM [9] of the same molecule?
A: The remaining binding at 1 µM was 69%.

Q: What about the remaining binding at 1 µM [10] of the same molecule?
A: The remaining binding at 1 µM was 70%.

Q: And the remaining binding at 1 µM [11]?
A: Its remaining binding at 1 µM is 73%.

Q: How did the remaining binding at 1 µM [12] turn out when `Cc1cccc(-c2cnc3occ(-c4ccc(C(=O)O)c(C5CCCC5)c4)c3c2)c1` [SGC-CAMKK2-1 (YL-36)] was run?
A: The remaining binding at 1 µM was 85%.

Q: And the remaining binding at 1 µM [13]?
A: Its remaining binding at 1 µM is 100%.

Q: And the remaining binding at 1 µM [14]?
A: The remaining binding at 1 µM was 100%.

Q: And the remaining binding at 1 µM [15]?
A: Its remaining binding at 1 µM is 100%.

Q: What about the remaining binding at 1 µM [16] of the same molecule?
A: The remaining binding at 1 µM was 85%.

Q: What about the remaining binding at 1 µM [17] of the same molecule?
A: Its remaining binding at 1 µM is 57%.

Q: And the remaining binding at 1 µM [18]?
A: Its remaining binding at 1 µM is 95%.

Q: What about the remaining binding at 1 µM [19] of the same molecule?
A: The remaining binding at 1 µM was 85%.

Q: And the remaining binding at 1 µM [20]?
A: The remaining binding at 1 µM was 100%.

Q: What about the remaining binding at 1 µM [21] of the same molecule?
A: Its remaining binding at 1 µM is 100%.

Q: What about the remaining binding at 1 µM [22] of the same molecule?
A: The remaining binding at 1 µM was 94%.

Q: What about the remaining binding at 1 µM [23] of the same molecule?
A: Its remaining binding at 1 µM is 100%.

Q: And the remaining binding at 1 µM [24]?
A: The remaining binding at 1 µM was 89%.

Q: And the remaining binding at 1 µM [25]?
A: The remaining binding at 1 µM was 100%.

Q: What about the “Percent Control” value [26] of the same molecule?
A: Its value is 100%.

Q: And the remaining binding at 1 µM [27]?
A: The remaining binding at 1 µM was 75%.

Q: What about the remaining binding at 1 µM [28] of the same molecule?
A: The remaining binding at 1 µM was 99%.

Q: And the remaining binding at 1 µM [29]?
A: Its remaining binding at 1 µM is 100%.

Q: What about the remaining binding at 1 µM [30] of the same molecule?
A: The remaining binding at 1 µM was 100%.

Q: What about the remaining binding at 1 µM [31] of the same molecule?
A: Its remaining binding at 1 µM is 95%.

Q: What about the remaining binding at 1 µM [32] of the same molecule?
A: The remaining binding at 1 µM was 100%.
